In the NIST ThermoML archive (doi:10.1016/j.tca.2007.04.012):

Tests used:
[1] = 298.15 K; 101.33 kPa; Liquid; Vibrating tube method
[2] = excess molar enthalpy (molar enthalpy of mixing); xn = mol fraction of the nth substance listed; settings: 298.15 K, 101 kPa, Liquid, Flow calorimetry
[3] = xn = mol fraction of the nth substance listed; settings: 298.15 K, 101 kPa, Liquid, Vibrating tube method

OCC(F)(F)F [2,2,2-trifluoroethanol]
Settings | mass density [kg/m3]
[1] | 1383.41

OCC(F)(F)F [2,2,2-trifluoroethanol] + CCCO
Settings | excess molar enthalpy [kcal/mol] | mass density [kg/m3]
[2], x1 = 0.0054 | -0.00299 | –
[2], x1 = 0.0092 | -0.00578 | –
[2], x1 = 0.02045 | -0.0111 | –
[2], x1 = 0.03258 | -0.0163 | –
[2], x1 = 0.04077 | -0.0215 | –
[2], x1 = 0.051 | -0.026 | –
[2], x1 = 0.1013 | -0.0439 | –
[2], x1 = 0.2013 | -0.0642 | –
[2], x1 = 0.3023 | -0.0721 | –
[2], x1 = 0.4041 | -0.073 | –
[2], x1 = 0.4962 | -0.0645 | –
[2], x1 = 0.5974 | -0.0539 | –
[2], x1 = 0.6998 | -0.0417 | –
[2], x1 = 0.7987 | -0.0275 | –
[2], x1 = 0.9003 | -0.0137 | –
[2], x1 = 0.9108 | -0.0123 | –
[2], x1 = 0.9211 | -0.011 | –
[2], x1 = 0.9333 | -0.00978 | –
[2], x1 = 0.9409 | -0.00832 | –
[2], x1 = 0.9486 | -0.00703 | –
[2], x1 = 0.9577 | -0.00578 | –
[2], x1 = 0.9694 | -0.00409 | –
[2], x1 = 0.9839 | -0.00258 | –
[2], x1 = 0.9916 | -0.00108 | –
[2], x1 = 0.9961 | -0.000406 | –
[3], x1 = 0.00607 | – | 802.48
[3], x1 = 0.01063 | – | 804.92
[3], x1 = 0.02216 | – | 810.94
[3], x1 = 0.03141 | – | 815.81
[3], x1 = 0.1032 | – | 853.69
[3], x1 = 0.2022 | – | 906.48
[3], x1 = 0.3118 | – | 965.59
[3], x1 = 0.408 | – | 1018.5
[3], x1 = 0.5085 | – | 1075.13
[3], x1 = 0.6057 | – | 1131.49
[3], x1 = 0.7074 | – | 1192.38
[3], x1 = 0.8029 | – | 1251.85
[3], x1 = 0.9023 | – | 1316.56
[3], x1 = 0.9671 | – | 1360.54
[3], x1 = 0.9785 | – | 1368.42
[3], x1 = 0.9898 | – | 1376.24
[3], x1 = 0.9948 | – | 1379.83
[3], x1 = 1 | – | 1383.41

OCC(F)(F)F [2,2,2-trifluoroethanol] + CCO
Settings | excess molar enthalpy [kcal/mol] | mass density [kg/m3]
[2], x1 = 0.00586 | -0.00471 | –
[2], x1 = 0.0106 | -0.00946 | –
[2], x1 = 0.02013 | -0.0193 | –
[2], x1 = 0.03032 | -0.0283 | –
[2], x1 = 0.03992 | -0.0369 | –
[2], x1 = 0.04851 | -0.0448 | –
[2], x1 = 0.06244 | -0.0517 | –
[2], x1 = 0.07146 | -0.0594 | –
[2], x1 = 0.08127 | -0.0666 | –
[2], x1 = 0.09052 | -0.0739 | –
[2], x1 = 0.09891 | -0.0797 | –
[2], x1 = 0.199 | -0.1256 | –
[2], x1 = 0.2992 | -0.1503 | –
[2], x1 = 0.3995 | -0.1603 | –
[2], x1 = 0.5039 | -0.157 | –
[2], x1 = 0.6029 | -0.1387 | –
[2], x1 = 0.7014 | -0.1179 | –
[2], x1 = 0.7964 | -0.08435 | –
[2], x1 = 0.8945 | -0.0468 | –
[2], x1 = 0.9072 | -0.0426 | –
[2], x1 = 0.916 | -0.0381 | –
[2], x1 = 0.9278 | -0.0345 | –
[2], x1 = 0.9389 | -0.0293 | –
[2], x1 = 0.9516 | -0.024 | –
[2], x1 = 0.9618 | -0.0199 | –
[2], x1 = 0.9729 | -0.0139 | –
[2], x1 = 0.9826 | -0.00901 | –
[2], x1 = 0.992 | -0.00356 | –
[2], x1 = 0.9988 | -0.000908 | –
[3], x1 = 0.00449 | – | 788
[3], x1 = 0.00898 | – | 791.1
[3], x1 = 0.02012 | – | 798.87
[3], x1 = 0.02992 | – | 805.61
[3], x1 = 0.04022 | – | 812.7
[3], x1 = 0.05208 | – | 820.82
[3], x1 = 0.1002 | – | 853.17
[3], x1 = 0.2003 | – | 918.54
[3], x1 = 0.3001 | – | 981.36
[3], x1 = 0.3999 | – | 1042.13
[3], x1 = 0.5003 | – | 1101.6
[3], x1 = 0.6012 | – | 1160.07
[3], x1 = 0.7025 | – | 1217.72
[3], x1 = 0.7851 | – | 1264.15
[3], x1 = 0.9109 | – | 1334.11
[3], x1 = 0.92 | – | 1339.16
[3], x1 = 0.9299 | – | 1344.65
[3], x1 = 0.9497 | – | 1355.58
[3], x1 = 0.9597 | – | 1361.14
[3], x1 = 0.9697 | – | 1366.65
[3], x1 = 0.9798 | – | 1372.26
[3], x1 = 0.9897 | – | 1377.67
[3], x1 = 1 | – | 1383.41

OCC(F)(F)F [2,2,2-trifluoroethanol] + CO
Settings | excess molar enthalpy [kcal/mol] | mass density [kg/m3]
[2], x1 = 0.00548 | -0.00519 | –
[2], x1 = 0.01037 | -0.00949 | –
[2], x1 = 0.02045 | -0.0191 | –
[2], x1 = 0.02995 | -0.0283 | –
[2], x1 = 0.04012 | -0.0376 | –
[2], x1 = 0.04831 | -0.0459 | –
[2], x1 = 0.09938 | -0.08521 | –
[2], x1 = 0.1996 | -0.1461 | –
[2], x1 = 0.297 | -0.1827 | –
[2], x1 = 0.3988 | -0.2023 | –
[2], x1 = 0.4971 | -0.2035 | –
[2], x1 = 0.6027 | -0.194 | –
[2], x1 = 0.7098 | -0.1616 | –
[2], x1 = 0.8044 | -0.1209 | –
[2], x1 = 0.8929 | -0.0647 | –
[2], x1 = 0.9016 | -0.0587 | –
[2], x1 = 0.9113 | -0.0538 | –
[2], x1 = 0.9251 | -0.0452 | –
[2], x1 = 0.9337 | -0.0388 | –
[2], x1 = 0.9463 | -0.0319 | –
[2], x1 = 0.9602 | -0.0246 | –
[2], x1 = 0.9707 | -0.0169 | –
[2], x1 = 0.9838 | -0.00875 | –
[2], x1 = 0.9953 | -0.0028 | –
[2], x1 = 0.9987 | -0.000645 | –
[3], x1 = 0.00435 | – | 790.62
[3], x1 = 0.00909 | – | 795.28
[3], x1 = 0.01555 | – | 801.57
[3], x1 = 0.01643 | – | 802.43
[3], x1 = 0.06693 | – | 849.62
[3], x1 = 0.1862 | – | 949.42
[3], x1 = 0.3191 | – | 1045.13
[3], x1 = 0.385 | – | 1087.8
[3], x1 = 0.4808 | – | 1144.91
[3], x1 = 0.5797 | – | 1198.76
[3], x1 = 0.6905 | – | 1253.74
[3], x1 = 0.8331 | – | 1317.38
[3], x1 = 0.9196 | – | 1352.57
[3], x1 = 0.9701 | – | 1372.13
[3], x1 = 0.9799 | – | 1375.89
[3], x1 = 0.9913 | – | 1380.01
[3], x1 = 0.9949 | – | 1381.47
[3], x1 = 1 | – | 1383.41

OCC(F)(F)F [2,2,2-trifluoroethanol] + O
Settings | excess molar enthalpy [kcal/mol] | mass density [kg/m3]
[2], x1 = 0.00546 | -0.00688 | –
[2], x1 = 0.01088 | -0.013 | –
[2], x1 = 0.02028 | -0.0219 | –
[2], x1 = 0.0306 | -0.0252 | –
[2], x1 = 0.04018 | -0.0246 | –
[2], x1 = 0.04984 | -0.0225 | –
[2], x1 = 0.05985 | -0.0196 | –
[2], x1 = 0.07002 | -0.0159 | –
[2], x1 = 0.07952 | -0.0122 | –
[2], x1 = 0.08986 | -0.00791 | –
[2], x1 = 0.09937 | -0.00335 | –
[2], x1 = 0.11 | 0.000789 | –
[2], x1 = 0.1193 | 0.00528 | –
[2], x1 = 0.1299 | 0.0097 | –
[2], x1 = 0.1385 | 0.0143 | –
[2], x1 = 0.1486 | 0.0192 | –
[2], x1 = 0.1983 | 0.0424 | –
[2], x1 = 0.2988 | 0.08652 | –
[2], x1 = 0.3988 | 0.123 | –
[2], x1 = 0.4955 | 0.1497 | –
[2], x1 = 0.5989 | 0.1661 | –
[2], x1 = 0.7078 | 0.1649 | –
[2], x1 = 0.8079 | 0.1296 | –
[2], x1 = 0.898 | 0.073 | –
[2], x1 = 0.9054 | 0.0679 | –
[2], x1 = 0.9202 | 0.0573 | –
[2], x1 = 0.9301 | 0.0499 | –
[2], x1 = 0.9387 | 0.0447 | –
[2], x1 = 0.9528 | 0.0344 | –
[2], x1 = 0.9646 | 0.0249 | –
[2], x1 = 0.9732 | 0.0189 | –
[2], x1 = 0.988 | 0.00963 | –
[2], x1 = 0.9952 | 0.00335 | –
[3], x1 = 0.00478 | – | 1005.99
[3], x1 = 0.01029 | – | 1016.28
[3], x1 = 0.01855 | – | 1031.19
[3], x1 = 0.02226 | – | 1037.71
[3], x1 = 0.1002 | – | 1139.98
[3], x1 = 0.1985 | – | 1215.51
[3], x1 = 0.3 | – | 1265.59
[3], x1 = 0.3983 | – | 1298.93
[3], x1 = 0.4965 | – | 1322.87
[3], x1 = 0.5995 | – | 1341.54
[3], x1 = 0.7303 | – | 1359.16
[3], x1 = 0.839 | – | 1370.38
[3], x1 = 0.9062 | – | 1376.17
[3], x1 = 0.9696 | – | 1381.16
[3], x1 = 0.98 | – | 1381.89
[3], x1 = 0.9899 | – | 1382.59
[3], x1 = 0.995 | – | 1382.97
[3], x1 = 1 | – | 1383.41

CCO [ethanol]
Settings | mass density [kg/m3]
[1] | 784.83

CCO [ethanol] + OCC(F)(F)F
Settings | mass density [kg/m3]
[3], x2 = 0 | 784.83

CO [methanol]
Settings | mass density [kg/m3]
[1] | 786.3

CO [methanol] + OCC(F)(F)F
Settings | mass density [kg/m3]
[3], x2 = 0 | 786.3

CCCO [propan-1-ol]
Settings | mass density [kg/m3]
[1] | 799.3

CCCO [propan-1-ol] + OCC(F)(F)F
Settings | mass density [kg/m3]
[3], x2 = 0 | 799.3
